22 molecules from ChEMBL document CHEMBL5143706, “2-Alkyl substituted benzimidazoles as a new class of selective AT2 receptor ligands” (Bioorg Med Chem, 2022) can be followed below.

The target in data set [1] is T1, Type-2 angiotensin II receptor (Homo sapiens, UniProt P50052).
T1 sequence (P50052 whole entry): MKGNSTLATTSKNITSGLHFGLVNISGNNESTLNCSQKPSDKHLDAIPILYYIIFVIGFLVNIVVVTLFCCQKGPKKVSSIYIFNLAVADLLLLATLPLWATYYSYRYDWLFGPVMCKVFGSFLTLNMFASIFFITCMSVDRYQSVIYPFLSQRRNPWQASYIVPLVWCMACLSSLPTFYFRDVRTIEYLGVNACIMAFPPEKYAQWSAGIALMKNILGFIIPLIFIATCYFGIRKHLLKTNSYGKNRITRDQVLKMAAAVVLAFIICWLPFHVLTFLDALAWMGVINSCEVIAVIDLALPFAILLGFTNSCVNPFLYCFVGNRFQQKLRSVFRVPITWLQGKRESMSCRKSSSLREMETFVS
As to the kind of experiment: Displacement of [125-I]-[Sar1Ile8]-angiotensin II from human AT2R expressed in HEK293 cell membrane assessed as inhibition constant by radioligand binding assay. It is filed as cell membranes.

The species entered for data set [2] is Homo sapiens. Put plainly: Selectivity index, ratio of Ki for displacement of [125-I]-[Sar1Ile8]-angiotensin II from human AT2R expressed in HEK293 cell membrane to Ki for displacement of [125-I]-[Sar1Ile8]-angiotensin II from human AT1R expressed in HEK293 cell membrane. In kind it is cell membranes.
For data set [3], the target named is T2, Type-1 angiotensin II receptor (Homo sapiens, UniProt P30556).
T2 sequence (P30556 whole entry): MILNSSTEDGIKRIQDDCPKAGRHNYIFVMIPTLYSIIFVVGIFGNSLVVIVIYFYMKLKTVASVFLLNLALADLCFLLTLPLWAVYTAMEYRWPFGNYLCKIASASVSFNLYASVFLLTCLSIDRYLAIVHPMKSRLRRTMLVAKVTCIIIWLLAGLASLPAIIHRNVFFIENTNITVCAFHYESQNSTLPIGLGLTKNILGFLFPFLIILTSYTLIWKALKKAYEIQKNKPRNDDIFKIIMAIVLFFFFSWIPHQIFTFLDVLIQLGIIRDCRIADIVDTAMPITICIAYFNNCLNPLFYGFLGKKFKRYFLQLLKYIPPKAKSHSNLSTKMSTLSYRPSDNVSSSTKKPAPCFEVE
As to the kind of experiment: Displacement of [125-I]-[Sar1Ile8]-angiotensin II from human AT1R expressed in HEK293 cell membrane assessed as inhibition constant by radioligand binding assay. It is filed as cell membranes.

Data set [4] is described as follows: Metabolic stability in Sprague-Dawley rat liver microsomes assessed as half life at 1 uM preincubated for 5 mins followed by NADPH addition and measured upto 60 mins by HPLC-MS/MS analysis. It is filed as ADME, Microsome. On the technique in general: Liver microsomes are a subcellular fraction often used to study metabolism.
Data set [5] is described as follows: Metabolic stability in CD-1 mouse liver microsomes assessed as half life at 1 uM preincubated for 5 mins followed by NADPH addition and measured upto 60 mins by HPLC-MS/MS analysis. In kind it is ADME, Microsome. The following applies: time < 65 min.
Data set [6] is described as follows: Metabolic stability in human liver microsomes assessed as half life at 1 uM preincubated for 5 mins followed by NADPH addition and measured upto 60 mins by HPLC-MS/MS analysis. It is filed as ADME, Microsome. The following applies: time < 65 min.
The nature of data set [7]: Displacement of [125-I]-angiotensin II from AT2R in pig myometrial membrane assessed as inhibition constant incubated for 1.5 hrs by gamma counter analysis. It is filed as cell membranes, Sus scrofa, Myometrium.

One may read the Ki as the equilibrium dissociation constant of an inhibitor or competing ligand from its target. By half-life is commonly meant the time needed for the level to fall by half in the phase considered.

Turning to `CCCCOC(=O)NS(=O)(=O)c1ccc(CCC)cc1-c1ccc(Cn2c(C3CCCC3)nc3ccccc32)cc1`, the Ki in data set [1] came to 35 nM; in data set [3], 410 nM. Moreover, the Ratio Ki in data set [2] was 10.
Turning to `CCCc1ccc(S(=O)(=O)NC(=O)OCCC(F)(F)C(F)(F)F)c(-c2ccc(Cn3c(C(C)(C)C)nc4ccccc43)cc2)c1`, the Ki in data set [1] was 6 nM; in data set [3], above 3000 nM.
The corresponding values for `CCCCOC(=O)NS(=O)(=O)c1ccc(CCC)cc1-c1ccc(Cn2c(C3CCC3)nc3ccccc32)cc1` are 12 nM and 400 nM.
`CCCCOC(=O)NS(=O)(=O)c1ccc(CCC)cc1-c1ccc(Cn2c(C(C)(C)C)nc3ccccc32)cc1`: the Ki in data set [1] is 5.3 nM; in data set [3], above 1000 nM. Besides, the half-life at 1 µM was found to be 20 min in data set [4], 7 min in data set [5] and 12 min in data set [6].
`CCCCOC(=O)NS(=O)(=O)c1ccc(CCC)cc1-c1ccc(Cn2c(C34CC5CC(CC(C5)C3)C4)nc3ccccc32)cc1`: the values for the Ki in data set [1] and in data set [3] were 460 nM and above 3000 nM, respectively.
Turning to `CCCCOC(=O)NS(=O)(=O)c1ccc(CCC)cc1-c1ccc(Cn2c(CC)nc3ccccc32)cc1`, the values for the Ki in data set [1] and in data set [3] were 11 nM and 710 nM, respectively.
As to `CCCCOC(=O)NS(=O)(=O)c1ccc(CCC)cc1-c1ccc(Cn2c(C(F)(F)F)nc3ccccc32)cc1`, the values for the Ki in data set [1] and in data set [3] were 13 nM and above 1000 nM, respectively. The half-life at 1 µM in data set [4] was 7 min; in data set [5], 4 min; in data set [6], 10 min.
Turning to `CCCCOC(=O)NS(=O)(=O)c1ccc(CCC)cc1-c1ccc(Cn2c(-c3ccccc3)nc3ccccc32)cc1`, the Ki was 590 nM in data set [1] and above 1000 nM in data set [3].
The corresponding values for `CCCCOC(=O)NS(=O)(=O)c1ccc(CCC)cc1-c1ccc(Cn2c(Cc3ccccc3)nc3ccccc32)cc1` are 15 nM and above 3000 nM.
Regarding `CCCCOC(=O)NS(=O)(=O)c1ccc(CCC)cc1-c1ccc(Cn2c(-c3nccs3)nc3ccccc32)cc1`, the Ki was 5.1 nM in data set [1] and above 3000 nM in data set [3]. For the same molecule, the half-life at 1 µM in data set [4] came out at 16 min; in data set [5], 5 min; in data set [6], 21 min.
As for `CCCCOC(=O)NS(=O)(=O)c1ccc(CCC)cc1-c1ccc(Cn2c(CCCC)nc3ccccc32)cc1`, the results for the Ki in data set [1] and in data set [3] were 9.2 nM and 180 nM, respectively.
With `CCCCOC(=O)NS(=O)(=O)c1ccc(CCC)cc1-c1ccc(Cn2c(C)nc3ccccc32)cc1`, the results for the Ki in data set [1] and in data set [3] were 9.4 nM and 620 nM, respectively. The half-life at 1 µM in data set [4] turned out to be 6 min; in data set [5], 4 min; in data set [6] it was 10 min.
`CCCCOC(=O)NS(=O)(=O)c1sc(CC(C)C)cc1-c1ccc(Cn2ccnc2)cc1` [BULOXIBUTID]: in data set [7], the Ki amounted to 0.4 nM.
On to `CCCCOC(=O)NS(=O)(=O)c1ccc(CCC)cc1-c1ccc(Cn2c(C(C)C)nc3ccccc32)cc1`, for which the inhibition constant (Ki) in data set [1] is 4 nM; in data set [3], 390 nM. Moreover, the Ratio Ki in data set [2] came to 100.
For the molecule `CCCCOC(=O)NS(=O)(=O)c1ccc(CCC)cc1-c1ccc(Cn2cnc3ccccc32)cc1`, the Ki in data set [1] was 29 nM; in data set [3], above 1000 nM. The half-life at 1 µM in data set [4] was 5 min; in data set [5] it was 5 min; in data set [6], 10 min.
As for `CCCCOC(=O)NS(=O)(=O)c1ccc(CCC)cc1-c1ccc(Cn2c(CC(C)C)nc3ccccc32)cc1`, the Ki was 19 nM in data set [1] and above 3000 nM in data set [3].
`CCCc1ccc(S(=O)(=O)NC(=O)OCCCC(F)(F)F)c(-c2ccc(Cn3c(C(C)(C)C)nc4ccccc43)cc2)c1`: the Ki in data set [1] was 4.5 nM; in data set [3] it was above 3000 nM. Also, the results for the half-life at 1 µM in data set [4], in data set [5] and in data set [6] were 21 min, 6 min and 20 min, respectively.
As to `CCCCOC(=O)NS(=O)(=O)c1ccc(CCC)cc1-c1cc(F)c(Cn2c(C(C)(C)C)nc3ccccc32)c(F)c1`, the figures for the Ki in data set [1] and in data set [3] were 11 nM and above 3000 nM, respectively.
The corresponding values for `CCCCOC(=O)NS(=O)(=O)c1ccc(CCC)cc1-c1ccc(Cn2c(C3CC3)nc3ccccc32)cc1` are 31 nM and 710 nM.
As to `CCCCOC(=O)NS(=O)(=O)c1ccc(CCC)cc1-c1ccc(Cn2c(C3CCCCC3)nc3ccccc32)cc1`, the Ki is 130 nM in data set [1] and above 3000 nM in data set [3].
`CCCc1ccc(S(=O)(=O)NC(=O)OCCCC(F)(F)F)c(-c2cc(F)c(Cn3c(C(C)(C)C)nc4ccccc43)c(F)c2)c1`: the results for the Ki in data set [1] and in data set [3] were 12 nM and above 3000 nM, respectively. Besides, the half-life at 1 µM in data set [4] was 16 min; in data set [5], 6 min; in data set [6], 15 min.
As for `CCCCOC(=O)NS(=O)(=O)c1ccc(CCC)cc1-c1ccc(Cn2c(CCC)nc3ccccc32)cc1`, the Ki in data set [1] worked out at 14 nM; in data set [3], 460 nM.
